In patent US20230136297A1, “Methods Of Treating Fabry Disease In Patients Having A Mutation In The GLA Gene” (Amicus Therapeutics, Inc., priority 2020, published 2023):
Residue numbers refer to the chain shown, from its start.

Experiments:
Test in all cases: α-Gal A activity in lysates of transfected HEK-293 cells ± migalastat (HEK assay)
Assay type in all cases: cell-based
[1] = target: T1, α-Gal A mutant form Y88C (Homo sapiens, UniProt P06280, Y88C)
T1 construct: expressed in transfected cells; host or cells: HEK-293
T1 sequence (P06280 32-429 Y88C): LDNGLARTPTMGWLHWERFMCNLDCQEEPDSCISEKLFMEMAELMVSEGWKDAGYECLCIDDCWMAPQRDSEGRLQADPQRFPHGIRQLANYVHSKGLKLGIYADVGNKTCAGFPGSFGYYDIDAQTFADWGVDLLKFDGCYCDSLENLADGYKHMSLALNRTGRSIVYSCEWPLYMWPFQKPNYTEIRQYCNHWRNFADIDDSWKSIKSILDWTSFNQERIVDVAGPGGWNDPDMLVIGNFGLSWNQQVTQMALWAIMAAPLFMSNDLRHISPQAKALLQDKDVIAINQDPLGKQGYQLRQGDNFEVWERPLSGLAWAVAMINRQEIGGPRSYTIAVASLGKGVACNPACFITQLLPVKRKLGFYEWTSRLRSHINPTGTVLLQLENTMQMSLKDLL
How it was run: (§1)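 Activity is reported as nmol of free 4-MU released per mg protein per hour (nmol/mg/hr).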

[2] = target: T2, α-Gal A mutant form V124G (Homo sapiens, UniProt P06280, V124G)
T2 construct: expressed in transfected cells; host or cells: HEK-293
T2 sequence (P06280 32-429 V124G): T1 sequence (P06280 32-429 Y88C) with C57Y, V93G
How it was run: as §1

[3] = target: T3, α-Gal A mutant form S276T (Homo sapiens, UniProt P06280, S276T)
T3 construct: expressed in transfected cells; host or cells: HEK-293
T3 sequence (P06280 32-429 S276T): T1 sequence (P06280 32-429 Y88C) with C57Y, S245T
How it was run: as §1

[4] = target: T4, α-Gal A mutant form R196T (Homo sapiens, UniProt P06280, R196T)
T4 construct: expressed in transfected cells; host or cells: HEK-293
T4 sequence (P06280 32-429 R196T): T1 sequence (P06280 32-429 Y88C) with C57Y, R165T
How it was run: as §1

[5] = target: T5, α-Gal A mutant form G271A (Homo sapiens, UniProt P06280, G271A)
T5 construct: expressed in transfected cells; host or cells: HEK-293
T5 sequence (P06280 32-429 G271A): T1 sequence (P06280 32-429 Y88C) with C57Y, G240A
How it was run: as §1

[6] = 10 μM migalastat minus baseline
[7] = HEK-293 lysates, 10 μM migalastat 5 days, mean ± SEM

Absolute increase (% WT) [1, 6]: 9.9 % WT | Relative increase ([1]; 10 μM migalastat ÷ baseline): 3.38 | 10 μM migalastat α-Gal A activity [1, 7]: 5459 ± 307 nmol/mg/h | 10 μM migalastat α-Gal A activity (% WT) [1, 7]: 14 ± 1.1 % WT | Absolute increase (% WT) [2, 6]: 6.4 % WT | 10 μM migalastat α-Gal A activity [2, 7]: 4316 ± 432 nmol/mg/h | 10 μM migalastat α-Gal A activity (% WT) [2, 7]: 10.7 ± 1^ % WT | Absolute increase (% WT) [3, 6]: 8.3 % WT | Relative increase ([3]; 10 μM migalastat ÷ baseline): 7.5 | 10 μM migalastat α-Gal A activity [3, 7]: 4104 ± 439 nmol/mg/h | 10 μM migalastat α-Gal A activity (% WT) [3, 7]: 9.6 ± 0.9 % WT | Absolute increase (% WT) [4, 6]: 22.4 % WT | Relative increase ([4]; 10 μM migalastat ÷ baseline): 1.48 | 10 μM migalastat α-Gal A activity [4, 7]: 26217 ± 1611 nmol/mg/h | 10 μM migalastat α-Gal A activity (% WT) [4, 7]: 69.5 ± 2.6 % WT | Absolute increase (% WT) [5, 6]: 34.4 % WT | Relative increase ([5]; 10 μM migalastat ÷ baseline): 3.87 | 10 μM migalastat α-Gal A activity [5, 7]: 18928 ± 1069 nmol/mg/h | 10 μM migalastat α-Gal A activity (% WT) [5, 7]: 46.4 ± 1.8 % WT
SMILES: OC[C@H]1NC[C@H](O)[C@@H](O)[C@H]1O [migalastat, (2R,3S,4R,5S)-2-(hydroxymethyl) piperdine-3,4,5-triol]
